From patent publication US20230147312A1, “TREATMENT OF ACUTE RESPIRATORY DISTRESS SYNDROME AND RELATED CONDITIONS WITH ANTAGONISTS OF E-SELECTIN” (GLYCOMIMETICS, INC., priority 2020, published 2023)
Entries after “also recorded” stand apart in the source; their conditions may differ. Read-outs that look alike come from different tables or passages of the source.

Experiments:
[1] = test system: Human lung microvascular endothelial cells (HMVEC-L); settings: HMVEC-L treated with 10 μM; cited from earlier work
[2] = test system: humans; assay: toxicity in Phase 1 clinical trials / humans
[3] = test system: animals; assay: toxicity in animals
[4] = test system: animals; settings: in vivo
[5] = molecular target: T1, E-selectin (Homo sapiens, UniProt P16581); assay: binding and inhibiting E-selectin
T1 sequence (P16581 22-610): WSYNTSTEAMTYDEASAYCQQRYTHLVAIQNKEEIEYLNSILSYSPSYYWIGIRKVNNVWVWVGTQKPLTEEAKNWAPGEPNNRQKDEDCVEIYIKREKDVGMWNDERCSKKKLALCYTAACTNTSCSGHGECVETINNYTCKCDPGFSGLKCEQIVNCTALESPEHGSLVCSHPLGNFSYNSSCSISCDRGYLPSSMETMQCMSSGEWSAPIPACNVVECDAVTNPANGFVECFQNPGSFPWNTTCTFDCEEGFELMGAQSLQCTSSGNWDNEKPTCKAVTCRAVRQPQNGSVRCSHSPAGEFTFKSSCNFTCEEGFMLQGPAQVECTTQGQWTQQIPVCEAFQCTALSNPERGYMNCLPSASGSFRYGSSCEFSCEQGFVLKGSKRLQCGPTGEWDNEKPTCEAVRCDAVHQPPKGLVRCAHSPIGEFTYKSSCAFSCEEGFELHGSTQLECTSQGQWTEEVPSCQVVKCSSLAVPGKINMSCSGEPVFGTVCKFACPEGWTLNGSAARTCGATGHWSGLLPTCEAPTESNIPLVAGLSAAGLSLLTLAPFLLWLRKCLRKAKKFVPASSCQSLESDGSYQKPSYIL

[6] = test system: humans; settings: human, in vivo
[7] = test system: sE-selectin; settings: cited from earlier work
[8] = test system: human dermal microvascular endothelial cells (HDMEC); settings: cytokine treatment over 4 hours, vs Medium control; cited from earlier work
[9] = test system: human umbilical vein endothelial cells (HUVEC); settings: cytokine treatment over 4 hours, vs Medium control; cited from earlier work
[10] = test system: COVID-19 patients; settings: of six COVID-19 patients in the ICU; cited from earlier work

## CCCCCCCCCCCCCCC(Cl)C(=O)O (stereo not shown) [Compound 2-CIPA, 2-chloropalmitic acid]
[1]
  adherence of human neutrophils: promoted neutrophil adhesion; also recorded: increases adhesion of neutrophils

## C[C@@H]1O[C@@H](O[C@@H]2[C@@H](NC(=O)c3cc(=O)[nH]c(=O)[nH]3)C[C@@H](C(=O)NCCNC(=O)COCCOCC(=O)Nc3cc(S(=O)(=O)O)cc4cc(S(=O)(=O)O)cc(S(=O)(=O)O)c34)C[C@H]2O[C@@H]2O[C@H](CO)[C@H](O)[C@H](O[C@@H](CC3CCCCC3)C(=O)O)[C@H]2OC(=O)c2ccccc2)[C@@H](O)[C@H](O)[C@@H]1O [GMI-1070]
[2]; Phase 1 clinical trials
  toxicities: no measurable toxicities
[2]; humans, relatively high concentrations
  toxicity: no toxicity
[3]
  toxicities: no measurable toxicities
[3]; relatively high concentrations
  toxicity: no toxicity

## CC[C@H]1C[C@@H](C(=O)NCCNC(=O)CCOCCOCCOCCOCCOCCOCCOCCOCCOCCOCCOCCOC)C[C@@H](O[C@@H]2O[C@H](CO)[C@H](O)[C@H](O[C@@H](CC3CCCCC3)C(=O)[O-])[C@H]2NC(C)=O)[C@@H]1O[C@@H]1O[C@@H](C)[C@@H](O)[C@@H](O)[C@@H]1O.[Na+] [GMI-1271]
[4]
  toxicities: no measurable toxicities
  toxicity: no toxicity
[5]
  antagonism of E-selectin: potent antagonists of E-selectin
[6]
  toxicities: no measurable toxicities
  toxicity: no toxicity
[7]; AML patients, after treatment, all dose groups
  sE-selectin circulating (plasma) levels: significantly (P<0.0001) reduced; also recorded: decreased over the treatment period in all dose groups
[7]; end of 6 days of dosing concurrently with MEC chemotherapy
  decrease of plasma soluble E-selectin from baseline to Day 8: highly significant (p<0.0001) with no dose response

## CCCCCCCCCCCCCCCC(=O)O [PA, palmitic acid]
[1]
  adherence of human neutrophils: did not

## IL-1β: cytokine used to treat endothelial cells
[8]
  expression of E-selectin: stimulate expression of E-selectin
[9]
  expression of E-selectin: stimulate expression of E-selectin

## TNFα
[8]
  expression of E-selectin: stimulate expression of E-selectin
[9]
  expression of E-selectin: stimulate expression of E-selectin

## tocilizimab: antibody directed against the cytokine, IL-6, approved as an anti-inflammatory drug
[10]
  patients who died: one
  patients who showed improvement: three
  patients who stabilized: two

B1: IL-10: cytokine used to treat endothelial cells (protein, UniProt P22301 19-178, looked up)
Interleukin-10: SPGQGTQSENSCTHFPGNLPNMLRDLRDAFSRVKTFFQMKDQLDNLLLKESLLEDFKGYLGCQALSEMIQFYLEEVMPQAENQDPDIKAHVNSLGENLKTLRLRLRRCHRFLPCENKSKAVEQVKNAFNKLQEKGIYKAMSEFDIFINYIEAYMTMKIRN
[8]
  expression of E-selectin: stimulate expression of E-selectin
[9]
  expression of E-selectin: stimulate expression of E-selectin
